System: type I collagen, normal human dermal fibroblasts
Experiment: Collagen assay: type I collagen by sandwich ELISA in fibroblast culture-conditioned medium
Format: cell-based
Settings: 4 days, LbGp 1.25 mg/ml and/or palmitoyl hexapeptide-6 0.20 mg/ml
Description: Normal human dermal fibroblasts (Cambrex, Walkersville, Md.) were seeded into a 96-well plate and grown to confluence. They were then challenged with several concentrations of the test samples for 4 days. The fibroblast culture-conditioned medium was harvested and tested for type I collagen by sandwich ELISA using affinity-purified antibodies. Magnesium ascorbyl phosphate (MAP) was tested along with the sample as a positive control.

In the case of “palmitoyl hexapeptide-6 [Hydrophobic peptide alone]”, the “Type I collagen Assay” value is reported as 420.
